Data on one molecule can be found in patent publication US10279046B2, “Eye drop composition for treating ocular inflammatory disease and preparation method therefor” (CATHOLIC UNIVERSITY INDUSTRY-ACADEMIC COOPERATION FOUNDATION, priority 2013, dated 2019).

In the test the test system is corneal damage model (alkali burn). The test can be described thus: Corneal damage model (alkali burn) with NaOH: corneal edema and inflammatory cells (hematoxylin-eosin and F4/80 staining). The test is classed as in vivo, rat (Sprague Dawley). Particulars: 0.1 mg/ml (0.01%) sulfasalazine, twice a day. As to the method:
A white […] (Sprague Dawley, 300 g, male) was used as an animal, and a corneal damage model (alkali burn) due to a chemical drug using NaOH was used. A paper disk of 3 mm was dipped in a 0.1 N NaOH solution (50 ul), and the cornea was covered with the paper disk for 30 seconds to induce the cornea to be damaged. The inflammation reaction in the cornea was confirmed by performing hematoxylin eosin staining and immunostaining on the F4/80 antigen. The analysis of corneal edema was performed using a ratio of corneal epithelium and corneal stroma.
After the damage to the cornea, the solubilized sulfasalazine and the sulfasalazine-hyaluronic acid eye drop prepared in the Example 1 were administered twice a day, respectively. 0.1% hyaluronic acid was administered to the control group.
Three days after the damage to the cornea, the eyeball was removed and a paraffin block was prepared to make a tissue slice, and the hematoxylineosin staining and the immunostaining on the F4/80 antigen as a macrophage marker were performed.
The analysis on the inflammatory cells was performed with respect to the number of macrophages (F4/80 positive cells) present in the cornea.

As for `O=C(O)c1cc(/N=N/c2ccc(S(=O)(=O)Nc3ccccn3)cc2)ccc1O` [sulfasalazine solution, sulfasalazine], the “number of macrophages (F4/80 positive cells) present in the cornea” value (after inducement of inflammation 31.5±4.9) is recorded as 21.3±5.5. The “ratio of corneal epithelium and stroma (corneal edema)” value (three days after damage, normal 4.6±1, after inducement of inflammation 10±2.5) is 7.1±2.1.
